Molecular target: T1, recombinant murine Aurora A enzyme (Mus musculus, UniProt P97477)
T1 construct: hexahistidine (His6) (N); made in house; host or cells: insect cells, baculovirus (Bac-to-Bac, Invitrogen)
Assay: Aurora A DELFIA Kinase Assay
Format: biochemical
Details: mouse Aurora A, 250 μM ATP; threshold less than or equal to 100 nM; read-out: IC50

T1 sequence (P97477 whole entry): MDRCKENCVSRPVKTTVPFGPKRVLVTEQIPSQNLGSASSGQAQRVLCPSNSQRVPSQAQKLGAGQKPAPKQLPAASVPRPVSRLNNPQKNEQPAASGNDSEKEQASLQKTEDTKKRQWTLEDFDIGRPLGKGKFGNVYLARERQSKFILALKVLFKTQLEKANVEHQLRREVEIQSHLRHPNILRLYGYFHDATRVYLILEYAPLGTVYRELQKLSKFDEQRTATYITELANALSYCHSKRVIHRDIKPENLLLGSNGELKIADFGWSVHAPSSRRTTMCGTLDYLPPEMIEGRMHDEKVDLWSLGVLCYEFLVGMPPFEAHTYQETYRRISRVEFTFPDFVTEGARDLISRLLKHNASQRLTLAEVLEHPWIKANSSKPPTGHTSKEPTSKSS

IC50: ≤ 0.1 µM
Compound: CNC(=O)c1ccc2c(c1)C(c1c(F)cccc1F)=NCc1cnc(Nc3ccc(C(=O)N4CC(C)NC(C)C4)cc3)nc1-2 (stereo not shown) [Compound I-376, 7-(2,6-difluorophenyl)-2-({4-[(3,5-dimethylpiperazin-1-yl)carbonyl]phenyl}amino)-N-methyl-5H-pyrimido[5,4-d][2]benzazepine-9-carboxamide]

— patent US9102678B2, “Compounds and methods for inhibiting mitotic progression” (Millennium Pharmaceuticals, Inc., priority 2004, dated 2015)
